# Laboratory results: US9657351B2, “MRNA-based gene expression for personalizing patient cancer therapy with an MDM2 antagonist” (Hoffmann-La Roche Inc., priority 2013, dated 2017)
# Tests used:
# [1] = system: CCRF-CEM; test: COMPOUND A In Vitro Assay; assay type: cell-based; settings: Homo sapiens, Lymphocyte T, peripheral blood, TP53 Mutant
# Procedure, shortened: (§1)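 HTS, human cancer cell line panel (CELLO/CACTEL), MDM2 antagonist COMPOUND A (RG7112). Readout: IC50. Sensitive: IC50<=1; resistant: IC50>=10.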
# [2] = system: KARPAS-299; test: COMPOUND A In Vitro Assay; assay type: cell-based; settings: Homo sapiens, Blood, TP53 Mutant
# Procedure, shortened: as §1
# [3] = system: LNCaP clone FGC; test: COMPOUND A In Vitro Assay; assay type: cell-based; settings: Homo sapiens
# Procedure, shortened: as §1
# [4] = system: NCI-H460; test: COMPOUND A In Vitro Assay; assay type: cell-based; settings: Homo sapiens
# Procedure, shortened: as §1
# [5] = system: NCI-H596; test: COMPOUND A In Vitro Assay; assay type: cell-based; settings: Homo sapiens, Lung, TP53 Mutant
# Procedure, shortened: as §1
# [6] = system: NCI-H838; test: COMPOUND A In Vitro Assay; assay type: cell-based; settings: Homo sapiens, Lung, TP53 Mutant
# Procedure, shortened: as §1
# [7] = system: RPMI-8226; test: COMPOUND A In Vitro Assay; assay type: cell-based; settings: Homo sapiens, Lymphocyte B, peripheral blood, TP53 Mutant
# Procedure, shortened: as §1
# [8] = system: P53; settings: NP22890; at C1D8; as previously reported; cited from earlier work
smiles,measurement,setting,value
CCOc1cc(C(C)(C)C)ccc1C1=N[C@@](C)(c2ccc(Cl)cc2)[C@@](C)(c2ccc(Cl)cc2)N1C(=O)N1CCN(CCCS(C)(=O)=O)CC1 [COMPOUND A],IC50,[1],9.7 µM
same,IC50,[2],19 µM
same,IC50,[3]; LNCaP clone FGC cells,0.2 µM
same,IC50,"[3]; LNCaP clone FGC, tissue NA, TP53 Wild type",0.17 µM
same,IC50,"[4]; NCI-H460, NCI-H460, Lung, TP53 Wild type",0.88 µM
same,IC50,"[4]; NCI-H460, NCI-H460 cells",0.9 µM
same,IC50,[5],18 µM
same,IC50,[6],14 µM
same,IC50,[7],6.6 µM
same,P53 concentration change from baseline,[8],significantly increase
